Laboratory results: patent publication US20230391824A1, “RATIONALE, DESIGN, SYNTHESIS AND VALIDATION OF A SMALL MOLECULE ANTICANCER AGENT” (priority 2021, published 2023)
Blank lines part the entries; values can stand above or below the molecule they belong to.

Key:
LIN28B protein = biological target: T1, LIN28B protein (Homo sapiens, UniProt Q6ZN17); assay: Western blotting of Lin28B protein in cancer cell models; type: cell-based; conditions: YP-MEL, BT-37, NT-2 cells; at the tested dosages
T1 construct: in a panel of endogenously LIN28 expressing cancer cell models; endogenous in cells; host or cells: YP-MEL, BT-12, BT-37, NT-2 (NTERA)
T1 sequence (Q6ZN17 1-250): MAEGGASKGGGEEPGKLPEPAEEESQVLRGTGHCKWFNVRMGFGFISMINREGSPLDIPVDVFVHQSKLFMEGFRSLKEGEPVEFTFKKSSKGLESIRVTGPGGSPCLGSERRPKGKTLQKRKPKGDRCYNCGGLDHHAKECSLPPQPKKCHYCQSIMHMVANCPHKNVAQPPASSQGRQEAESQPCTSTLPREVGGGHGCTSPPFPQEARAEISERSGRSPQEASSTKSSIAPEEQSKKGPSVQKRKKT
Method: FIG. 5: Compound of formula (I) mixture, containing the two isomers (P1+P2) causes significant reduction in Lin28A protein from 5 μM onwards, in a panel of endogenously LIN28 expressing cancer cell models. […] LIN28A and LIN28B expression profile in pediatric CNS cancer cell lines, 96-hr post-treatment with Compound of formula (I). SDS-PAGE on 10% polyacrylamide gel of total cell lysates from untreated cells harvested at 80-90% confluency. Samples loaded with volumes for 20 μg protein. LIN28A and LIN28B proteins were detected using the anti-LIN28A antibody (#8706; Cell Signaling Technology) and anti-LIN28B antibody (#11965; Cell Signalling Technology) at 1:2000 dilutions. T47D: adult breast cancer (LIN28A expressing); YPMEL: malignant melanoma derived from Neurocutaneous Melanosis (NCM) (Lin28A and Lin28B expressing); BT-12: pediatric atypical-teratoid rhabdoid tumor (AT/RT). […]
The proteins were extracted from the same samples as the RNA using the RIPA lysis buffer. […] The proteins were detected using the anti-Lin28A antibody (#8706; Cell Signaling Technology), anti-Lin28B antibody (#11965, Cell Signaling Technology) the anti-beta-actin antibody at respectively 1:2000, 1:2000 and 1:5000 dilutions.

Lin28A protein = biological target: T2, Lin28A protein (Homo sapiens, UniProt Q9H9Z2); assay: Western blotting of Lin28A protein in cancer cell models; type: cell-based; conditions: YP-MEL, BT-37, NT-2 cells
T2 construct: in a panel of endogenously LIN28 expressing cancer cell models; endogenous in cells; host or cells: T47D, YP-MEL, BT-12, BT-37, NT-2 (NTERA)
T2 sequence (Q9H9Z2 1-209): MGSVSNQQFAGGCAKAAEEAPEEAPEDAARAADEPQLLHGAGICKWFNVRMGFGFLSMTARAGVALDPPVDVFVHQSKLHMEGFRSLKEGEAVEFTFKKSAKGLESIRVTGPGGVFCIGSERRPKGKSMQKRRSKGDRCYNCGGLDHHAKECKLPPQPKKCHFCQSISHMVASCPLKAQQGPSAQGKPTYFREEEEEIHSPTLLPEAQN
Method: FIG. 5: Compound of formula (I) mixture, containing the two isomers (P1+P2) causes significant reduction in Lin28A protein from 5 μM onwards, in a panel of endogenously LIN28 expressing cancer cell models. […] LIN28A and LIN28B expression profile in pediatric CNS cancer cell lines, 96-hr post-treatment with Compound of formula (I). SDS-PAGE on 10% polyacrylamide gel of total cell lysates from untreated cells harvested at 80-90% confluency. Samples loaded with volumes for 20 μg protein. LIN28A and LIN28B proteins were detected using the anti-LIN28A antibody (#8706; Cell Signaling Technology) and anti-LIN28B antibody (#11965; Cell Signalling Technology) at 1:2000 dilutions. T47D: adult breast cancer (LIN28A expressing); YPMEL: malignant melanoma derived from Neurocutaneous Melanosis (NCM) (Lin28A and Lin28B expressing); BT-12: pediatric atypical-teratoid rhabdoid tumor (AT/RT).
FIG. 7A-C: To determine the differences in the biological activity of the two isomers (P1+P2) of Compound of formula (I), we tested the effects of purified and separated P1 and P2 isomers on the protein expression of Lin28A and Lin28B. (A) YP-MEL (NCM). (B) BT-37 (AT/RT). (C) NT-2 (NTERA) (Testicular cancer).
(§1) The proteins were extracted from the same samples as the RNA using the RIPA lysis buffer. The protein extracts (20 μg) were run on 10% SDS-PAGE and transferred on a nitrocellulose blotting membrane 0.22 μm (GE Healthcare) using the Trans-Blot® SD semi-dry transfer devise (Biorad). The proteins were detected using the anti-Lin28A antibody (#8706; Cell Signaling Technology), anti-Lin28B antibody (#11965, Cell Signaling Technology) the anti-beta-actin antibody at respectively 1:2000, 1:2000 and 1:5000 dilutions.

Solubility = type: physicochemical; conditions: DMSO, organic solvent or mixture; read-out: solubility in DMSO
[1] = test system: NT-2 testicular cancer cells; assay: Flow cytometric (propidium iodide) cell cycle analysis of NT-2 cells; type: cell-based; conditions: 24h, compared with P1
Method: FIG. 9: NT-2, testicular cancer cells, were incubated with Compound of formula (I) isomers for 24h and subjected to Flow Cytometric analysis to determine the alterations in cancer cell cycle. […] Therefore, only the P1 isomer of Compound of formula (I) was investigated further to determine its in vitro and in vivo efficacy.
The method for Propidium Iodide (PI) based cell cycle analysis was performed as per the instructions given by the manufacturer (AB139418; Abcam). Briefly NT-2 cells treated with Compound of formula (I) versions were harvested in single cell suspensions with each experimental condition containing two million cells, fixed in 66% Ethanol overnight at 4° C. The ethanol was removed thoroughly by centrifugation, followed by rehydration of cells in PBS with a repeat of centrifugation. Cells were stained in PI (1%) and RNase solution (1%) in PBS for 30 minutes at 37° C. in the dark. The cells were analyzed immediately on the Flow Cytometer.

stem cell tumor spheres = assay: Stem cell tumor spheres, western blotting of stemness and differentiation markers; type: cell-based
Method: FIG. 12: Dose-dependent effect of Compound of formula (I) on the stem cell tumor spheres, in the presence of LIF—a pluripotency supplement used for maintenance of stem cell population (Panel A). As determined by western blotting, Compound of formula (I) begins to halt the expression of stemness markers (Nestin, LIN28A, Oct-4) and induces elevation of differentiation markers (GFAP), from 1 μM onwards (Panel B).
as §1

let-7a miRNA = assay: Taqman miRNA qRT-PCR of let-7a; type: cell-based
Method: FIG. 11: Compound of formula (I) lead to successful rescue of pre-Iet-7a and their maturation to miRNA let-7a tumor suppressor, only at 1 μM.
Total RNA was extracted using the RNeasy kit (74104, Qiagen). TaqMan® qRT-PCR was performed using standard reagents from Life Technologies (TaqMan® MicroRNA Assay: hsa-let-7a: 000377). The RT was performed using the TaqMan® primers from MicroRNA Assays and the TaqMan® MicroRNA Reverse Transcription Kit (4366596, Life technologies) with 20 ng total RNA. The PCR was performed in a LightCycler 480 instrument with GoTaq® Probe qPCR Master mix (A6102, Promega) according to the manufacturer's protocol. Each reaction was carried out in three technical replicates.

[2] = test system: LIN28A-positive cancer cell models; assay: Alamar Blue cell viability, LIN28A-positive versus LIN28B-expressing cancer cell models; type: cell-based; conditions: relative to LIN28B-expressing cancer cell models
Method: FIG. 6: Cells were cultured in the presence of the Compound of formula (I) (P1+P2) at increasing concentrations and cell viability was evaluated using Alamar Blue dye and measurement at Excitation of 550 nm and Emission of 590 nm. All the data shown are representative of three replicates. […] LIN28A and LIN28B expression in the presence of Compound of formula (I) correlates with the sensitivity of cells to this inhibitor.
(§2) FIG. 8A-F: Cells were cultured in the presence of the Compound of formula (I) (versions P1, P2 or P1+P2 at equipotent doses) at increasing concentrations and cell viability was evaluated using Alamar Blue dye and measurement at Excitation of 550 nm and Emission of 590 nm. All the data shown are representative of three replicates. […] A. NT-2 cell viability. B. YP-MEL cell viability. C. WI-38 cell viability. D. T47D cell viability. E. BT-12 cell viability. F. summary of Lin28A and Lin28B status.
as §2, with “8A-F.” for “8A-F:”, “F. summary of Lin28A and Lin28B status.” left out

[3] = test system: BHQ1-pre-let7a and EGFP-Lin28A bound complexes; assay: FRET assay, displacement of BHQ1-pre-let7a from EGFP-Lin28A; type: binding; conditions: at 100 μM
Method: This method was adapted from Roos et al (2016). HEK 293-T cells (ATCC) were cultured as monolayers in DMEM GlutaMAX™-1 (Cat #31966-021, Gibco®, Life Technologies) supplemented with 10% of FBS (fetal bovine serum). Stable EGFP-Lin28A HEK 293-T cells were cultured as monolayers in DMEM supplemented with 10% of FBS (fetal bovine serum) and 0.5 mg/ml Geneticin G418 (10131-035, Life Technologies). Transfections were performed according to the manufacturer's protocol with […] (12252-011, Invitrogen, Life Technologies) for siRNAs and JetPEI (101-10, Polyplus transfections) was used for plasmid DNA. […]
160,000 HEK 293 T cells were seeded per well in 6 well plates and transfected with 320 ng pEGFP-C2-Lin28A plasmid according to the experimental setup with the reagents described above and cells were allowed to recover for 48h. […] The EGFP-lin28A| expressing cells were sorted using Fluorescence Activated Cell Sorting (FACS). Finally, larger colonies of individual clones were analyzed for expression levels of EGFP-Lin28A by performing the FRET assay. […]
FRET system (EGFP-Lin28A and 19B-let7a) treated with DMSO was used as positive control. […] The FRET measurements were obtained from the optimized fluorescence parameter. […] The average signal intensity and background fluorescence were corrected with compound self-fluorescence with and without binding buffer.

Lin28B expression (LIN28B protein): remained unaltered
effect on the expression levels of Lin28A (Lin28A protein): no effect
solubility (Solubility): < 1000 µg/mL
Compound: CCC(C)C(NC(=O)C(Cc1ncc[nH]1)NC(=O)c1cccc(C(N)=O)c1)C(=O)Nc1ccc(O)c(-c2nc3ccccc3s2)c1 (centres unmarked) [Compound P2]
triggering of cancer cell death / changes in cancer cell viability [1]: failed to cause any significant changes

Compound: CC[C@H](C)[C@H](NC(=O)[C@H](Cc1ncc[nH]1)NC(=O)c1cccc(C(N)=O)c1)C(=O)Nc1ccc(O)c(-c2nc3ccccc3s2)c1 [Compound of formula (I)]
effect on stemness and differentiation markers in the stem cell population (stem cell tumor spheres): dose dependent reduction of sternness markers and elevation of differentiation markers
concentration from which stemness markers (Nestin, LIN28A, Oct-4) are halted and differentiation markers (GFAP) elevated (stem cell tumor spheres; in the presence of LIF, western blotting): ≥ 1 µM
concentration giving rescue of pre-let-7a and maturation to miRNA let-7a (let-7a miRNA): 1 µM
upregulation of let-7a (let-7a miRNA; Lin28B expressing BT-12 cells, relative to RNU6B): only minor upregulation
expression of let-7a miRNA tumor suppressor (let-7a miRNA; YP-MEL, T47D, A549 cells, relative to RNU6B): increase in the expression
sensitivity of LIN28A-positive cancer cell models [2]: heightened sensitivity

FRET reduction compared with 70% by Compound of formula (I) [3]: equivalent FRET reduction
Compound: CC(=O)N(C)c1cccc(-c2ccc3nnc(C)n3n2)c1 [c1632, reference compound]
